From US20110178050A1, “USE OF CYCLOLIGNANS FOR THE TREATMENT OF A HYPERACTIVE IMMUNE SYSTEM” (Axelar AB, priority 2008, published 2011)
Several values for one entry are separate records, joined by “and”; a condition that tells them apart may be missing. Equal entries are not always repeated.

How the values were obtained:
helper T lymphocytes = experiment: Activation of helper T lymphocytes in human blood (FACS, CD4/CD69); type: cell-based; conditions: 30 min
Protocol: (§1) The effects of picropodophyllin and deoxypicropodophyllin on the activation of subgroups of lymphocytes in human blood were determined by flow cytometry (FACS). Lymphocytes from human peripheral blood were purified by ficoll-hypaque (Pharmacia, Amersham) and then distributed in FACS tubes at 500,000 cells in 0.5 mL per tube. Cells were kept in RPMI medium (Life technologies) supplemented with 10% bovine serum […] (BGS; Sigma), 1% penicillin-streptomycin (Sigma) and 1% glutamine (Sigma). The cells were incubated for 30 min at room temperature in the absence (control lymphocytes) or presence of picropodophyllin and deoxypicropodophyllin at 0.1 and 2.5 microM concentrations. After washing, the cells were stained 15 min for the surface molecules CD4, CD8 and CD69. CD4 and CD8 are expressed by two subsets of T lymphocytes, i.e. helper T cells and cytotoxic T cells, respectively, and CD69 is a lymphocyte activation marker. The staining was performed with the following fluorophore conjugated antibodies: anti-CD4PB; anti-CD8APC; anti-CD69APCCy7 (Beckton Dickinson). The cells were then washed with PBS containing 2% FCS and 0.05% NaN3 (FACS buffer) and then stained with […] (PI)/FITC Annexin V (Beckton Dickinson) to determine apoptosis of cells, and after incubation for another 15 min and washing, the cells were analysed by flow cytometry (FACSCalibur; Beckton Dickinson). Data were evaluated using the Cellquest computer software (Beckton Dickinson).

human T lymphocytes = experiment: 3H-thymidine incorporation, Concanavalin A stimulated proliferation of lymphocytes from patients; type: cell-based; conditions: for 3H-thymidine in cyclolignan-treated lymphocytes (% of 3H-thymidine in control lymphocytes): 2.5 microM, Con A three days, 18 h incorporation; for Proliferation of peripheral blood T lymphocytes, in words: lymphocytes of patients with autoimmune diseases
Protocol: The effects of picropodophyllin and deoxypicropodophyllin on human T lymphocyte function, i.e. the proliferation capacity of human T lymphocytes in response to an antigen/mitogen, were measured using a time course tritium labelled thymidine incorporation assay. Lymphocytes from peripheral blood of patients were purified by ficoll-hypaque (Pharmacia, Amersham) and were distributed in 96 well plates at 100,000 cells per well, and all samples were in triplicates. Cells were kept in RPMI 1640 medium (Life technologies) supplemented with 10% human serum (Sigma), 100 units/mL penicillin (Sigma), 100 microg/mL streptomycin (Sigma) and 2 mM L-glutamine (Sigma). Proliferation of lymphocytes was stimulated with the T lymphocyte mitogen Concanavalin A (Con A) 10 microg/mL (Sigma). After three days incubation with Con A, with and without the cyclolignans, 1 microCi ^3H-thymidine (Amersham) was added to each well, and after another eighteen hours cells were harvested and washed, and the amount of ^3H-thymidine incorporated into newly synthesized DNA determined by scintillation counting.

mice = experiment: Systemic toxicity of trans and cis isomers of cyclolignans in mice; conditions: nude mice; for Survival (in words) / Toxic signs (in words): 28 mg/kg/d intraperitoneally daily for 5 days; for No. of surviving mice/No. of treated mice: 28 mg/kg/d intraperitoneally daily
Protocol: The experiment was carried out to determine the significance of the stereochemistry of cyclolignans for their general toxicity by investigating systemic toxic effects of trans and cis isomers of cyclolignans in mice. Five-week old pathogen-free nude mice (nu/nu) were used and housed within plastic isolators in a sterile facility. Experimental treatments with podophyllotoxin, deoxypodophyllotoxin, picropodophyllin and deoxypicropodophyllin were performed by injecting each compound dissolved in 10 microL of a mixture of DMSO and saline intraperitoneally daily for 5 days. The dose injected once daily was 28 mg/kg/d and 6 mice were used for each drug. Control mice were treated with the vehicle only.
The mice were checked daily for signs of discomfort, diseases and weight loss.

[1] = test system: lymphocytes from human peripheral blood; experiment: Apoptosis of human blood lymphocytes (PI/Annexin V, FACS); type: cell-based; conditions: 30 min
Protocol: as §1

cytotoxic T lymphocytes = experiment: Activation of cytotoxic T lymphocytes in human blood (FACS, CD8/CD69); type: cell-based; conditions: for CD8, percent cytotoxic T cells of total cells (events) / CD8/CD69, percent activated cytotoxic T cells of total cytotoxic T cells: 30 min; for Effect on number of activated cytotoxic T lymphocytes (CD8/CD69), in words: 0.1 and 2.5 microM
Protocol: as §1

blood lymphocytes [2] = experiment: Effect of two-week treatment on blood lymphocytes in rats; type: in vivo, rats (Sprague-Dawley); conditions: 20 mg/kg/12 h intraperitoneally, 14 days
Protocol: In this experiment, healthy 200-grams rats (Sprague-Dawley) were treated with picropodophyllin by intraperitoneal injections twice daily, the dose being 20 mg/kg/12 h, using DMSO/sunflower oil, 9:1, as vehicle. The control group was treated with the vehicle only (totally per day: 200 μL DMSO). Each group included 5 rats. After treatment for 14 days, the rats were sacrificed and blood samples were taken. The number of blood cells in the samples was counted using an Advia 120 Hematology system from Bayer AB (Diagnostica).

blood lymphocytes [3] = experiment: Effect of seven-day treatment on blood lymphocytes in mice; type: in vivo; conditions: 20 mg/kg/12 h intraperitoneally, 7 days
Protocol: In this experiment, healthy 20-gram mice were treated with picropodophyllin by intraperitoneal injections twice daily, the dose being 20 mg/kg/12 h using DMSO/sunflower oil, 9:1, as vehicle. The control group was treated with the vehicle only (totally per day: 20 μL DMSO/oil). Each group included 3 mice. After treatment for 7 days, the mice were sacrificed and blood samples were taken. The number of blood cells in the samples was counted using an Advia 120 Hematology system from Bayer AB (Diagnostica).

[4] = MS (multiple sclerosis) patients
[5] = RA (rheumatoid arthritis) patients
[6] = UC (ulcerative colitis) patients

SMILES | CD4, percent helper T cells of total cells (events) (helper T lymphocytes; 0.1 μM) | CD4/CD69, percent activated helper T cells of total helper T cells (helper T lymphocytes; 0.1 μM) | CD4, percent helper T cells of total cells (events) (helper T lymphocytes; 2.5 μM) | CD4/CD69, percent activated helper T cells of total helper T cells (helper T lymphocytes; 2.5 μM) | 3H-thymidine in cyclolignan-treated lymphocytes (% of 3H-thymidine in control lymphocytes) (human T lymphocytes; CD (Crohn's disease) patients) | 3H-thymidine in cyclolignan-treated lymphocytes (% of 3H-thymidine in control lymphocytes) (human T lymphocytes; [4]) | 3H-thymidine in cyclolignan-treated lymphocytes (% of 3H-thymidine in control lymphocytes) (human T lymphocytes; [5]) | 3H-thymidine in cyclolignan-treated lymphocytes (% of 3H-thymidine in control lymphocytes) (human T lymphocytes; [6]) | Proliferation of peripheral blood T lymphocytes, in words (human T lymphocytes) | Survival (in words) (mice) | Toxic signs (in words) (mice) | No. of surviving mice/No. of treated mice (mice; Day 1) | No. of surviving mice/No. of treated mice (mice; Day 2) | No. of surviving mice/No. of treated mice (mice; Day 3) | No. of surviving mice/No. of treated mice (mice; Day 4) | No. of surviving mice/No. of treated mice (mice; Day 5) | ANNEXIN V, percent of total cells ([1]; 0.1 μM) | PI ANNEXIN V, percent of total cells ([1]; 0.1 μM) | PI, percent of total cells ([1]; 0.1 μM) | ANNEXIN V, percent of total cells ([1]; 2.5 μM) | other results
COc1cc([C@@H]2c3cc4c(cc3C[C@H]3COC(=O)[C@H]32)OCO4)cc(OC)c1OC [Deoxypicropodophyllin] | 36.7% | 13.2% | 37.1% | 7.5% | 8% | 8% | 7% | 10% | suppressed | survived the whole 5-day period | did not exhibit any obvious toxic signs | 6/6 | 6/6 | 6/6 | 6/6 | 6/6 | 1.3% | 9.2% | 0% | 1.5% | 3H-thymidine in cyclolignan-treated lymphocytes (% of 3H-thymidine in control lymphocytes) (human T lymphocytes; AD (Alzheimer's disease) patients): 9%; PI ANNEXIN V, percent of total cells ([1]; 2.5 μM): 9.3%; PI, percent of total cells ([1]; 2.5 μM): 0%; CD8, percent cytotoxic T cells of total cells (events) (cytotoxic T lymphocytes; 0.1 μM): 34.7%; CD8/CD69, percent activated cytotoxic T cells of total cytotoxic T cells (cytotoxic T lymphocytes; 0.1 μM): 4.1%; CD8, percent cytotoxic T cells of total cells (events) (cytotoxic T lymphocytes; 2.5 μM): 32.8%; CD8/CD69, percent activated cytotoxic T cells of total cytotoxic T cells (cytotoxic T lymphocytes; 2.5 μM): 0.9%; Effect on number of activated cytotoxic T lymphocytes (CD8/CD69), in words (cytotoxic T lymphocytes): dose-dependently decreased
COc1cc([C@@H]2c3cc4c(cc3C[C@H]3COC(=O)[C@@H]32)OCO4)cc(OC)c1OC [Deoxypodophyllotoxin, reference compound] |  |  |  |  |  |  |  |  |  | after 3 days they were all dead | serious toxic signs on the second day | 6/6 | 4/6 | 0/6 | 0/6 | 0/6 |  |  |  |  | 
COc1cc([C@@H]2c3cc4c(cc3[C@H](O)[C@H]3COC(=O)[C@@H]23)OCO4)cc(OC)c1OC [Picropodophyllin] | 36.7% | 11.0% | 36.3% | 9.7% | 8% | 10% | 15% | 13% | suppressed | survived the whole 5-day period | did not exhibit any obvious toxic signs | 6/6 | 6/6 | 6/6 | 6/6 | 6/6 | 0.9% | 9.4% | 0% | 0.9% | 3H-thymidine in cyclolignan-treated lymphocytes (% of 3H-thymidine in control lymphocytes) (human T lymphocytes; AD patients): 7%; Lymphocytes in blood (blood lymphocytes [2]; individual rats, listed as PPP, 20 mg/kg): 3.16e+09 L⁻¹ and 4.5e+08 L⁻¹ and 4.2e+09 L⁻¹ and 2.8e+09 L⁻¹ and 3.86e+09 L⁻¹; Decrease of blood lymphocytes (blood lymphocytes [2]; rats, versus controls): more than 50%; Lymphocytes in blood (blood lymphocytes [3]; individual mice, listed as PPP, 20 mg/kg): 3e+07 L⁻¹ and 1e+07 L⁻¹ and 0 L⁻¹; Effect on number of blood lymphocytes (in words) (blood lymphocytes [3]; mice): reduced the number of blood lymphocytes; PI ANNEXIN V, percent of total cells ([1]; 2.5 μM): 10.5%; PI, percent of total cells ([1]; 2.5 μM): 0%; CD8, percent cytotoxic T cells of total cells (events) (cytotoxic T lymphocytes; 0.1 μM): 35.0%; CD8/CD69, percent activated cytotoxic T cells of total cytotoxic T cells (cytotoxic T lymphocytes; 0.1 μM): 3.2%; CD8, percent cytotoxic T cells of total cells (events) (cytotoxic T lymphocytes; 2.5 μM): 34.8%; CD8/CD69, percent activated cytotoxic T cells of total cytotoxic T cells (cytotoxic T lymphocytes; 2.5 μM): 1.8%; Effect on number of activated cytotoxic T lymphocytes (CD8/CD69), in words (cytotoxic T lymphocytes): dose-dependently decreased
COc1cc([C@@H]2c3cc4c(cc3[C@H](O)[C@H]3COC(=O)[C@H]23)OCO4)cc(OC)c1OC [Podophyllotoxin, reference compound] |  |  |  |  |  |  |  |  |  | on the second day all of the animals were dead | became quickly sick | 2/6 | 0/6 | 0/6 | 0/6 | 0/6 |  |  |  |  | 
